Measurements as given in PubChem BioAssay AID1648 (Sanford-Burnham Center for Chemical Genomics, 2009).
Activity calls are given as the source filed them. The rule behind the calls is not given here.

What follows are compounds tested against Serine/threonine-protein kinase mTOR (Homo sapiens) (UniProt P42345) (assay: mTOR FRB domain ligand binding – biophysical, NMR (AID 1648)). Settings: NMR binding to FRB domain, chemical shift.
Chain of Serine/threonine-protein kinase mTOR (Homo sapiens) (P42345 2015-2114): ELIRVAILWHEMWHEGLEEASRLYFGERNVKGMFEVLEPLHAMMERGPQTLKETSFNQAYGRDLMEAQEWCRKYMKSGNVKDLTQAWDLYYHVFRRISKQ
With `Cc1nn(C)c(C)c1NC(=S)NC1CCCC1` the Kd was > 4 mM (inactive). In the case of `Cc1oc(-c2ccccc2)nc1CC(=O)O`, the Kd is reported as > 4 mM (inactive). `COc1ccccc1-c1n[nH]c(=O)o1` was tested, and the Kd was > 4 mM (inactive). For `O=C(O)c1onc2ccccc12`, the Kd was > 4 mM (inactive). In the case of `Nc1cccnc1N1CCOCC1`, the Kd is reported as > 4 mM (inactive). For `Cc1nnc(Nc2ccc(S(N)(=O)=O)cc2)[nH]c1=O`, the Kd was > 4 mM (inactive). `Cc1n[nH]c(=S)[nH]c1=O` was tested, and the Kd was > 4 mM (inactive). In the case of `CC1=C(C(N)=O)C(c2ccccc2)NC(=O)N1` (configuration not stated), the Kd is reported as > 4 mM (inactive). In the case of `O=C(C1CCNCC1)N1CCCCCC1`, the Kd is reported as > 4 mM (inactive). For `O=C(O)c1ccc(-c2ccccn2)s1`, the Kd was > 4 mM (inactive). `Cc1nnc2n(c1=O)N=C(c1ccccc1)CS2` was tested, and the Kd was > 4 mM (inactive). With `CC(=O)Oc1cc(-c2coc3cc(OC(C)=O)c(OC(C)=O)c(OC(C)=O)c3c2=O)cc(OC(C)=O)c1OC(C)=O` the Kd was > 4 mM (inactive). For `Cc1cc(N)n(-c2ccccc2)n1`, the Kd was > 4 mM (inactive). With `CC1CCC(N2CCN(c3ncccn3)CC2)CC1` (configuration not stated) the Kd was > 4 mM (inactive). For `COc1ccc(N2C(=N)C(C)(C)NC2=O)cc1`, the Kd was > 4 mM (inactive). With `OCCNc1nc2ccc(Cl)cc2[nH]1` the Kd was > 4 mM (inactive). In the case of `Cc1sc2nc(SC3CCOC3=O)[nH]c(=O)c2c1C` (configuration not stated), the Kd is reported as > 4 mM (inactive). In the case of `Nc1ccc2c(c1)OCCO2`, the Kd is reported as > 4 mM (inactive). With `NC(=O)CSc1nnnn1-c1ccccc1` the Kd was > 4 mM (inactive). In the case of `O=C(Cc1cccs1)Nc1ccon1`, the Kd is reported as > 4 mM (inactive). In the case of `CCC(C)C(=O)O[C@H]1[C@H](O)C2C(CN3CC(C)CCC3[C@@]2(C)O)C2C[C@]34O[C@]5(O)C(OC(=O)C(C)(O)CC)CC[C@@]3(C)C5C(OC(C)=O)[C@@H](OC(C)=O)C4[C@@]21O` (some centres not stated), the Kd is reported as > 4 mM (inactive). For `COc1ccc(-c2coc3cc(O)ccc3c2=O)cc1`, the Kd was > 4 mM (inactive). For `O=C(O)c1cc2ccccc2o1`, the Kd was > 4 mM (inactive). `C/C(O)=c1/sc2cc(C)nc(=N)n2c1=O` was tested, and the Kd was > 4 mM (inactive). In the case of `COc1cc2c(cc1-c1coc3c4c(c(OC)cc3c1=O)OC(C)(C)C=C4)OCO2`, the Kd is reported as > 4 mM (inactive). For `Cc1cc(NC(=O)c2ccccc2C(=O)O)no1`, the Kd was > 4 mM (inactive). For `COc1cc(-c2coc3cc(O[C@@H]4O[C@H](CO)[C@@H](O)[C@H](O)[C@H]4O)c(OC)c(O)c3c2=O)cc(O)c1OC`, the Kd was > 4 mM (inactive). `Cc1cc(=O)n(CCc2ccccc2)c(O)c1C#N` was tested, and the Kd was > 4 mM (inactive). For `CN1CCC(N2CCN(C)CC2)CC1`, the Kd was > 4 mM (inactive). For `O=C(Cc1cccs1)N1CCOCC1`, the Kd was > 4 mM (inactive). With `Cc1cc(O)c(NC(=O)c2ccco2)cc1C` the Kd was > 4 mM (inactive). In the case of `CSc1nnc2ccc(-c3cccnc3)nn12`, the Kd is reported as > 4 mM (inactive). `Cc1cc(N)on1` was tested, and the Kd was > 4 mM (inactive). In the case of `NC(=O)CCS(=O)(=O)CCN1CCOCC1`, the Kd is reported as > 4 mM (inactive). With `Cc1ncc(CC(=O)O)s1` the Kd was > 4 mM (inactive). With `CC(=O)CC1(O)C(=O)Nc2ccccc21` (configuration not stated) the Kd was > 4 mM (inactive). With `COc1cc(OC)cc(-c2nc(N)n[nH]2)c1` the Kd was > 4 mM (inactive). For `COC(=O)[C@]1(C)CC[C@]2(C)CC[C@]3(C)C4=CC=C5C(=CC(=O)C(O)=C5C)[C@]4(C)CC[C@@]3(C)[C@@H]2C1`, the Kd was > 4 mM (inactive). With `CSc1nc(O)cc(=O)[nH]1` the Kd was > 4 mM (inactive). `Cc1csc(CCc2nc(C)cs2)n1` was tested, and the Kd was > 4 mM (inactive). With `Nc1nc2n(c1C(=O)c1ccccc1)CCC2` the Kd was > 4 mM (inactive). With `CCOC(=O)CN1C(=O)c2ccccc2C1=O` the Kd was > 4 mM (inactive). `O=S(=O)(N1CCOCC1)n1nnc2ccccc21` was tested, and the Kd was > 4 mM (inactive). In the case of `Cn1c(=O)c2c(ncn2CCNC2=NCCC2)n(C)c1=O`, the Kd is reported as > 4 mM (inactive). With `COC(=O)c1cccnc1Oc1ccccc1` the Kd was > 4 mM (inactive). `O=C1c2ccccc2C(=O)N1OCc1ccccc1` was tested, and the Kd was > 4 mM (inactive). `Cc1nn2c(=O)/c(=C/c3cccc(F)c3)sc2nc1=O` was tested, and the Kd was > 4 mM (inactive). With `O=c1c(-c2ccccc2)coc2cc(O)cc(O)c12` the Kd was > 4 mM (inactive). In the case of `CNC(=S)N1CCN=C1Nc1nc(C)cc(C)n1`, the Kd is reported as > 4 mM (inactive). For `Cc1cc(C)n(C2CCS(=O)(=O)C2)n1` (configuration not stated), the Kd was > 4 mM (inactive). `CS(=O)(=O)NC1CCN(Cc2ccccc2)CC1` was tested, and the Kd was > 4 mM (inactive). With `NC(=O)CC(=O)NC12CC3CC(CC(C3)C1)C2` the Kd was > 4 mM (inactive). `Cc1ccc2cc(CO)ccc2n1` was tested, and the Kd was > 4 mM (inactive). `CC(C)C(=O)NCC(c1ccco1)N1CCOCC1` (configuration not stated) was tested, and the Kd was > 4 mM (inactive). In the case of `O=C(Nn1cnnc1)c1csc2ccccc12`, the Kd is reported as > 4 mM (inactive). With `CN1C(=O)c2ccc(N3CCCC3)cc2C1=O` the Kd was > 4 mM (inactive). With `CN1C2C[C@H](OC(=O)[C@H](CO)c3ccccc3)C[C@H]1[C@@H](O)C2` the Kd was > 4 mM (inactive). For `Cc1ccc(-c2nnn(CC(=O)O)n2)cc1`, the Kd was > 4 mM (inactive). In the case of `CN1CN/C(=N\[N+](=O)[O-])N(c2ccccc2)C1`, the Kd is reported as > 4 mM (inactive). With `O=C(Cc1ccc(F)cc1)Nc1ncccn1` the Kd was > 4 mM (inactive). With `Cc1cc(C)n(CCC(=O)O)n1` the Kd was > 4 mM (inactive). For `O=C(NC1CCS(=O)(=O)C1)C1CCCCC1` (configuration not stated), the Kd was > 4 mM (inactive). In the case of `Nc1nc(-c2nc3ccccc3[nH]2)cs1`, the Kd is reported as > 4 mM (inactive). With `c1ccc(CCc2nc(-c3cccnc3)no2)cc1` the Kd was > 4 mM (inactive). For `CCCCn1c(=O)cc(O)c2ccccc21`, the Kd was > 4 mM (inactive). With `c1ccc(CSc2ncccn2)cc1` the Kd was > 4 mM (inactive). For `CC(=O)c1ccc(NC(=O)c2ocnc2C)cc1`, the Kd was > 4 mM (inactive). With `COc1ccc2cc1Oc1ccc(cc1)C[C@H]1c3c(cc4c(c3Oc3cc5c(cc3OC)CCN(C)[C@@H]5C2)OCO4)CCN1C` the Kd was > 4 mM (inactive). With `CC(=O)N1C(=S)NC(=O)/C1=C\c1cccnc1` the Kd was > 4 mM (inactive). For `COc1ccc(-c2c(C)n([O-])c(C)c(C)[n+]2=O)cc1`, the Kd was > 4 mM (inactive). With `[O-][n+]1onc2c1CCc1c-2nn(-c2ccccc2)[n+]1[O-]` the Kd was > 4 mM (inactive). In the case of `Fc1cccc(Cl)c1CN1CCCNCC1`, the Kd is reported as > 4 mM (inactive). For `O=C(O)CCN1CCc2ccccc2C1c1ccncc1` (configuration not stated), the Kd was > 4 mM (inactive). With `c1ccc(CCc2nc(-c3ccncc3)no2)cc1` the Kd was > 4 mM (inactive). In the case of `c1cc(C(N2CCOCC2)N2CCOCC2)ccn1`, the Kd is reported as > 4 mM (inactive). For `Cc1nnc(Nc2cccnc2)[nH]c1=O`, the Kd was > 4 mM (inactive). For `CCC(=O)NC(=S)Nc1ccc(O)cc1`, the Kd was > 4 mM (inactive). For `O/N=C1/CCCc2nonc21`, the Kd was > 4 mM (inactive). For `C=CC1=C(C)/C(=C/c2[nH]c(Cc3[nH]c(/C=C4\NC(=O)C(C)=C4C=C)c(C)c3CCC(=O)O)c(CCC(=O)O)c2C)NC1=O`, the Kd was > 4 mM (inactive). For `C=C[C@H]1CN2CC[C@H]1C[C@@H]2[C@@H](O)c1ccnc2ccc(OC)cc12`, the Kd was > 4 mM (inactive). `COc1cc(OC)c2c(=O)c(-c3ccccc3)coc2c1` was tested, and the Kd was > 4 mM (inactive). `CC1(C)Oc2ccc3ccc(=O)oc3c2CC1O` (configuration not stated) was tested, and the Kd was > 4 mM (inactive). For `OCc1cc(F)cc2c1OCOC2`, the Kd was > 4 mM (inactive). `Cc1c(N=Cc2ccco2)c(=O)n(-c2ccccc2)n1C` was tested, and the Kd was > 4 mM (inactive). With `NCCCCN=C(N)N` the Kd was > 4 mM (inactive). In the case of `Cc1cc(C)n(S(=O)(=O)c2ccc(C(C)(C)C)cc2)n1`, the Kd is reported as > 4 mM (inactive). In the case of `O=C1CCNc2cc3ccccc3cc21`, the Kd is reported as > 4 mM (inactive). With `CN1C(=O)/C(=C\c2ccc[nH]2)SC1=S` the Kd was > 4 mM (inactive). `NS(=O)(=O)c1ccc(F)cc1` was tested, and the Kd was > 4 mM (inactive). For `Cn1c2ccccc2n2c(=S)[nH]nc12`, the Kd was > 4 mM (inactive). For `CN(C)c1ccc(CNn2cnnc2)cc1`, the Kd was > 4 mM (inactive). `O=c1[nH]cc(NCc2ccco2)c(=O)[nH]1` was tested, and the Kd was > 4 mM (inactive). `CC(=O)Cc1nsc(NC(=O)c2ccc(C)cc2)n1` was tested, and the Kd was > 4 mM (inactive). In the case of `CNC(=O)Oc1ccc2c(c1)[C@]1(C)CCN(C)[C@@H]1N2C`, the Kd is reported as > 4 mM (inactive). `O=C1CC(NCc2ccco2)C(=O)NN1` (configuration not stated) was tested, and the Kd was > 4 mM (inactive). For `CC(=O)Nc1ccc(NC(C)=O)cc1`, the Kd was > 4 mM (inactive). `Nc1cc(=O)[nH]c(SCC(=O)Nc2nccs2)n1` was tested, and the Kd was > 4 mM (inactive). `CCOc1ccc(-c2c(=O)n(O)c3ccccc3[n+]2[O-])cc1` was tested, and the Kd was > 4 mM (inactive). `C/C(=N\NC(N)=S)C(=O)O` was tested, and the Kd was > 4 mM (inactive). With `NC(=O)C1CCN(c2nccc(C(F)(F)F)n2)CC1` the Kd was > 4 mM (inactive). With `CCn1c(-c2c[nH]c3ccccc23)n[nH]c1=S` the Kd was > 4 mM (inactive). `C=C1C([C@]2(C)C(CC(=O)OC)[C@@](C)(COC(C)=O)OC(=O)C[C@@H]2OC(C)=O)[C@@H](OC=O)[C@H](OC(=O)C(O)C(C)CC)[C@@]2(C)[C@H](c3ccoc3)CC(=O)C12O` (some centres not stated) was tested, and the Kd was > 4 mM (inactive). With `Cc1ccnc(NS(=O)(=O)c2cccs2)c1` the Kd was > 4 mM (inactive). With `O=C(O)c1c[nH]c2ccccc12` the Kd was > 4 mM (inactive). With `Cc1cc(C)nc(/N=C(/N)N2CCN(C)CC2)n1` the Kd was > 4 mM (inactive). For `Cc1ccc(NC(=O)C2CCN(S(C)(=O)=O)CC2)cc1`, the Kd was > 4 mM (inactive). In the case of `NC(=O)CNC(=O)c1ccc2ccccc2n1`, the Kd is reported as > 4 mM (inactive). In the case of `CSc1ccc(C(=S)N2CCN(C)CC2)cc1`, the Kd is reported as > 4 mM (inactive). In the case of `CC(C)=CCCC1(C)C=Cc2c(O)c3c(c(CC=C(C)C)c2O1)OC12C(=CC4CC1C(C)(C)OC2(C/C=C(/C)C(=O)O)C4O)C3=O` (configuration not stated), the Kd is reported as > 4 mM (inactive). With `Oc1ccccc1N1CCOCC1` the Kd was > 4 mM (inactive). With `Nc1cc(F)ccc1-n1ccnc1` the Kd was > 4 mM (inactive). With `CC(C)=CC1C(CO)C1(C)C` (configuration not stated) the Kd was > 4 mM (inactive). For `CCOc1ccc(C(=O)c2ccncc2)cc1`, the Kd was > 4 mM (inactive). `Cn1ncc(C(=O)O)c1-c1ccccc1` was tested, and the Kd was > 4 mM (inactive). `Cc1ccccc1CSc1nncn1N` was tested, and the Kd was > 4 mM (inactive). With `CC(=O)Nc1cccc(Cn2cccn2)c1` the Kd was > 4 mM (inactive). For `O[C@H]1C=C2CCN3Cc4cc5c(cc4C(C23)[C@@H]1O)OCO5` (some centres not stated), the Kd was > 4 mM (inactive).
